# Values quoted from earlier work in patent publication US11712576B2, “Method and apparatus for cancer treatment” (Minnesota Medical Physics LLC, priority 2018, dated 2023).
# Columns and labels:
# [1] = test system: melanoma, colon, prostate carcinoma, lymphoma, pancreatic and hepatocellular carcinomas
# [2] = test system: human glioblastoma U87MG cancer cells; details: agonist 100 nM combined with EFS (Helmholtz coils)
# tumor = details: concentration of 100 μM
# [3] = oral doses of 4 mg twice a day over a week period
# lung cancer cells Lu-65 = details: highest concentrations in mM range (0.01-10 mM tested), 48 hours
# adenosine receptor A2aAR = adenosine receptor A2aAR (Homo sapiens, UniProt P29274)
# adenosine receptor A2aAR, sequence (P29274 whole entry): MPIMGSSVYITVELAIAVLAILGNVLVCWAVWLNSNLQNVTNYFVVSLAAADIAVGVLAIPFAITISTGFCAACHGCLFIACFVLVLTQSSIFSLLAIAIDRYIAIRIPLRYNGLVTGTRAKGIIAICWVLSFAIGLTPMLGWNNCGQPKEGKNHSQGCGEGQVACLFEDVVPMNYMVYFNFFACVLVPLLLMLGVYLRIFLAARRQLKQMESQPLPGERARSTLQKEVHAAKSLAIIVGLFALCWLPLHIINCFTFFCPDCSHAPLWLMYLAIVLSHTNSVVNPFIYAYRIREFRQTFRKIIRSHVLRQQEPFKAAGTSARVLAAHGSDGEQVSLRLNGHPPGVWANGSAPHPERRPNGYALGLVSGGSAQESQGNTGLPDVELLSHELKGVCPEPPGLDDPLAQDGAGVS
compound,measurement,setting,value
CNC(=O)[C@H]1O[C@@H](n2cnc3c(NCc4cccc(I)c4)nc(Cl)nc32)[C@H](O)[C@@H]1O [CI-IB-MECA],apoptosis of cancer cells (normal cells refractory),cancer cells,induce apoptosis of cancer cells
same,"effect on metastases, migrating mobility and proliferation of cancer cells",[1],"reduction of metastases, migrating mobility of cancer cells and inhibition of proliferation"
same,increase in apoptosis attributed to EFS over agonist alone,[2],25-30%
same,effect on tumor growth,tumor,only a slowdown of tumor growth
CNC(=O)[C@H]1O[C@@H](n2cnc3c(NCc4cccc(I)c4)ncnc32)[C@H](O)[C@@H]1O [CF101],apoptosis of cancer cells (normal cells refractory),cancer cells,induce apoptosis of cancer cells
same,tolerability,[3],well tolerated
CNC(=O)[C@H]1O[C@@H](n2cnc3c(NCc4cccc(I)c4)ncnc32)[C@H](O)[C@@H]1O [IB-MECA],"effect on metastases, migrating mobility and proliferation of cancer cells",[1],"reduction of metastases, migrating mobility of cancer cells and inhibition of proliferation"
CNC(=O)c1cnn(-c2nc(N)c3ncn([C@@H]4O[C@H](CO)[C@@H](O)[C@H]4O)c3n2)c1 [Lexiscan],side effects,BBB; doses used for cardiac perfusion,"strong, sometimes life-threatening side effects"
same,permeation of the BBB,BBB; in vivo,substantial permeation of the BBB
Nc1ncnc2c1ncn2[C@@H]1O[C@H](CO)[C@@H](O)[C@H]1O [adenosine],cancer cells destroyed,lung cancer cells Lu-65,100%
Nc1nc2c(cnn2CCc2ccccc2)c2nc(-c3ccco3)nn12 [SCH-58261],selectivity for A2aAR over the other adenosine receptors,adenosine receptor A2aAR,more than 50 fold
